In ChEMBL document CHEMBL1151601, “Probing the binding site of the penicillin side-chain based on the tipper-strominger hypothesis” (1993) one finds Concentration and MIC data, which are given here for seven compounds.

Assay [1] has as its system Escherichia coli. Kind of assay: Concentration required for 90 percent inhibition of [14C]- pen-G binding to Escherichia coli DCO PBP3 60 KDa.
The subject of assay [2] is Escherichia coli. Nature of the assay: Concentration required for 90 percent inhibition of [14C]- pen-G binding to Escherichia coli DCO PBP4 49 KDa.
In assay [3] the test system is Staphylococcus aureus. Kind of assay: Concentration required for 90 percent inhibition of [14C]- pen-G binding to Staphylococcus aureus ATCC 25293 PBP2 80 KDa.
The test system of assay [4] is Staphylococcus aureus. Kind of assay: Concentration required for 90 percent inhibition of [14C]- pen-G binding to Staphylococcus aureus ATCC 25293 PBP1 87 KDa.
Assay [5] has as its system Escherichia coli. Nature of the assay: Concentration required for 90 percent inhibition of [14C]- pen-G binding to Escherichia coli DCO PBP2 66 KDa.
For assay [6], the system named is Escherichia coli. Kind of assay: Concentration required for 90 percent inhibition of [14C]- pen-G binding to Escherichia coli DCO PBP1a 90 KDa.
In assay [7] the test system is Escherichia coli. Kind of assay: Concentration required for 90 percent inhibition of [14C]- pen-G binding to Escherichia coli DCO PBP5/6 40 KDa.
Assay [8] concerns Escherichia coli. Kind of assay: Tested for minimum inhibitory concentration against Escherichia coli DC2. The format is functional.
Assay [9] has as its system Staphylococcus aureus. Nature of the assay: Concentration required for 90 percent inhibition of [14C]- pen-G binding to Staphylococcus aureus ATCC 25293 PBP4 41 KDa.
Assay [10] has as its system Escherichia coli. Kind of assay: Tested for minimum inhibitory concentration against Escherichia coli DCO. In kind it is functional.
Assay [11] relates to Staphylococcus aureus. Nature of the assay: Tested for minimum inhibitory concentration against Staphylococcus aureus ATCC 25293. The format is functional.
Assay [12] deals with Escherichia coli. Kind of assay: Concentration required for 90 percent inhibition of [14C]- pen-G binding to Escherichia coli DCO PBP1b 90 KDa.
In assay [13] the test system is Staphylococcus aureus. Kind of assay: Concentration required for 90 percent inhibition of [14C]- pen-G binding to Staphylococcus aureus ATCC 25293 PBP3 75 KDa.
The subject of assay [14] is Escherichia coli. Nature of the assay: Concentration required for 90 percent inhibition of [14C]- pen-G binding to Escherichia coli Penicillin-binding protein (DCO PBP4 49 KDa).
Assay [15] deals with Escherichia coli. Kind of assay: Concentration required for 90 percent inhibition of [14C]- pen-G binding to Escherichia coli Penicillin-binding protein (DCO PBP2 66 KDa).
For assay [16], the system named is Staphylococcus aureus. Nature of the assay: Concentration required for 90 percent inhibition of [14C]- pen-G binding to Staphylococcus aureus Penicillin-binding protein (ATCC 25293 PBP1 87 KDa).
Assay [17] has as its system Escherichia coli. Nature of the assay: Concentration required for 90 percent inhibition of [14C]- pen-G binding to Escherichia coli Penicillin-binding protein (DCO PBP1a 90 KDa).
The subject of assay [18] is Escherichia coli. Nature of the assay: Concentration required for 90 percent inhibition of [14C]- pen-G binding to Escherichia coli Penicillin-binding protein (DCO PBP1b 90 KDa).
Assay [19] has as its system Escherichia coli. Nature of the assay: Concentration required for 90 percent inhibition of [14C]- pen-G binding to Escherichia coli Penicillin-binding protein (DCO PBP3 60 KDa).
The subject of assay [20] is Escherichia coli. Nature of the assay: Concentration required for 90 percent inhibition of [14C]- pen-G binding to Escherichia coli Penicillin-binding protein (DCO PBP5/6 40 KDa).
For assay [21], the system named is Staphylococcus aureus. Nature of the assay: Concentration required for 90 percent inhibition of [14C]- pen-G binding to Staphylococcus aureus Penicillin-binding protein (ATCC 25293 PBP2 80 KDa).

Values after ≈ are worked out from the molar mass of the structure shown.

In the case of `CC1(C)S[C@@H]2[C@H](NC(=O)Cc3ccccc3)C(=O)N2[C@H]1C(=O)O` [PENICILLIN G], the Concentration was 2 µg/mL with Escherichia coli [1]; 2 µg/mL in the assay with Escherichia coli [2]; 0.1 µg/mL in the assay on Staphylococcus aureus [3]; 0.1 µg/mL in the assay on Staphylococcus aureus [4]; 10 µg/mL with Escherichia coli [5]; greater than 100 µg/mL with Escherichia coli [6]. Besides, the Concentration in the assay with Escherichia coli [7] was greater than 100 µg/mL; with Staphylococcus aureus [9], 10 µg/mL; in the assay with Escherichia coli [12] it was 10 µg/mL; with Staphylococcus aureus [13] it was 0.1 µg/mL. In addition, the values for the MIC against Escherichia coli [8], in the assay with Escherichia coli [10] and with Staphylococcus aureus [11] were 12 µg/mL (≈ 35.9 µM), 50 µg/mL (≈ 150 µM) and less than 0.05 µg/mL, respectively.

With `CC1(C)S[C@@H]2[C@H](NC(=O)[C@H](N)c3ccccc3)C(=O)N2[C@H]1C(=O)O` [AMPICILLIN], the Concentration turned out to be 2 µg/mL in the assay on Escherichia coli [1]; 0.1 µg/mL in the assay with Escherichia coli [2]; 2 µg/mL in the assay with Staphylococcus aureus [3]; 0.1 µg/mL in the assay on Staphylococcus aureus [4]; 0.5 µg/mL with Escherichia coli [5]; 2 µg/mL in the assay with Escherichia coli [6]. The Concentration in the assay with Escherichia coli [7] was 100 µg/mL; in the assay on Staphylococcus aureus [9], greater than 100 µg/mL; in the assay with Escherichia coli [12] it was 10 µg/mL; in the assay on Staphylococcus aureus [13], 0.1 µg/mL. The MIC was 0.4 µg/mL (≈ 1.14 µM) against Escherichia coli [8] and 1.6 µg/mL (≈ 4.58 µM) with Staphylococcus aureus [11].

As for `CC(=O)NCCCC[C@H](C(=O)N[C@@H]1C(=O)N2[C@@H]1SC(C)(C)[C@@H]2C(=O)O)c1ccccc1`, the Concentration in the assay on Escherichia coli [1] worked out at 30 µg/mL; in the assay with Escherichia coli [2], 30 µg/mL; with Staphylococcus aureus [3], 100 µg/mL; in the assay on Staphylococcus aureus [4], 30 µg/mL; with Escherichia coli [5], 30 µg/mL; in the assay with Escherichia coli [6], 30 µg/mL. The Concentration with Escherichia coli [7] is greater than 100 µg/mL; in the assay with Escherichia coli [12], 100 µg/mL; with Staphylococcus aureus [13], greater than 100 µg/mL. In addition, the MIC in the assay on Escherichia coli [8] is greater than 100 µg/mL; in the assay on Escherichia coli [10] it was greater than 100 µg/mL; against Staphylococcus aureus [11], 20 µg/mL (≈ 44.7 µM).

For `CC1(C)SC2C(NC(=O)Cc3ccccc3)C(=O)N2[C@H]1C(=O)O` (stereo partly drawn), the Concentration with Escherichia coli [14] was 100 µg/mL; in the assay on Escherichia coli [15], greater than 100 µg/mL; in the assay with Staphylococcus aureus [16], 2 µg/mL; in the assay on Escherichia coli [17], greater than 100 µg/mL; in the assay on Escherichia coli [18], greater than 100 µg/mL; in the assay with Escherichia coli [19] it was 100 µg/mL. Besides, the Concentration in the assay on Escherichia coli [20], with Staphylococcus aureus [21] and in the assay with Staphylococcus aureus [9] was greater than 100 µg/mL each time. The same compound came in with an MIC with Staphylococcus aureus [11] greater than 20 µg/mL.

On to `CC(=O)NCCCC[C@@H](C(=O)N[C@@H]1C(=O)N2[C@@H]1SC(C)(C)[C@@H]2C(=O)O)c1ccccc1`, for which the Concentration in the assay with Escherichia coli [1] is 100 µg/mL; in the assay on Escherichia coli [2], 100 µg/mL; with Staphylococcus aureus [3] it was greater than 100 µg/mL; in the assay on Staphylococcus aureus [4], 100 µg/mL; in the assay on Escherichia coli [5], greater than 100 µg/mL; with Escherichia coli [6], greater than 100 µg/mL. The Concentration in the assay with Escherichia coli [7], in the assay with Escherichia coli [12] and in the assay with Staphylococcus aureus [13] was greater than 100 µg/mL each time. Moreover, the MIC is greater than 20 µg/mL in the assay with Escherichia coli [8], greater than 100 µg/mL with Escherichia coli [10] and greater than 20 µg/mL against Staphylococcus aureus [11].

For `CC1(C)S[C@@H]2[C@H](NC(=O)[C@@H](CCCCN)c3ccccc3)C(=O)N2[C@H]1C(=O)O`, the Concentration with Escherichia coli [1] was 100 µg/mL; with Escherichia coli [2], 30 µg/mL; with Staphylococcus aureus [3], 30 µg/mL; in the assay on Staphylococcus aureus [4], 30 µg/mL; in the assay with Escherichia coli [5], 30 µg/mL; in the assay with Escherichia coli [6], 10 µg/mL. In addition, the Concentration with Escherichia coli [7] was greater than 100 µg/mL; in the assay with Escherichia coli [12], 100 µg/mL; with Staphylococcus aureus [13] it was greater than 100 µg/mL. The MIC was 5 µg/mL (≈ 12.3 µM) against Escherichia coli [8], 100 µg/mL (≈ 247 µM) against Escherichia coli [10] and 5 µg/mL (≈ 12.3 µM) in the assay with Staphylococcus aureus [11].

Turning to `CC1(C)S[C@@H]2[C@H](NC(=O)[C@H](CCCCN)c3ccccc3)C(=O)N2[C@H]1C(=O)O`, the Concentration is 10 µg/mL in the assay with Escherichia coli [1]; 10 µg/mL in the assay with Escherichia coli [2]; 100 µg/mL in the assay on Staphylococcus aureus [3]; 100 µg/mL in the assay with Staphylococcus aureus [4]; 30 µg/mL in the assay on Escherichia coli [5]; 30 µg/mL with Escherichia coli [6]. For the same compound, the Concentration with Escherichia coli [7] was greater than 100 µg/mL; with Escherichia coli [12], 100 µg/mL; in the assay with Staphylococcus aureus [13], greater than 100 µg/mL. The MIC with Escherichia coli [8], in the assay on Escherichia coli [10] and against Staphylococcus aureus [11] was greater than 100 µg/mL in each case.
